Read-outs that look alike come from different tables or passages of the source.
Legend:
Assay type in all cases: cell-based
[1] = test system: phosphorylation of AKT (pAKT) in T47D cells expressing mutant PI3Ka (H1047R); assay: In vitro cell pAKT (Ser473) HTRF, T47D cells; conditions: cellular pAKT, T47D cells, mutant PI3Ka (H1047R), 6 hours, read-out: Avg T-47D IC50
Outline: (§1)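 pAKT (Ser473) was quantified by HTRF in lysates from cells exposed 6 h at 37 °C to 10-point compound series, with T47D in insulin-supplemented RPMI/10% FBS and SKBR3 in McCoy's 5a/10% FBS. Controls: 0.1% DMSO (high) and 10 uM alpelisib (low). IC50 from sigmoidal curve fitting.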

[2] = test system: phosphorylation of AKT (pAKT) in SKBR3 cells express WT PI3Ka; assay: In vitro cell pAKT (Ser473) HTRF, SKBR3 cells; conditions: cellular pAKT
Outline: as §1

[3] = test system: SKBR3 cells express WT PI3Ka; assay: In vitro cell proliferation, SKBR3 cells (CellTiter-Glo); conditions: inhibition of proliferation
Outline: (§2)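 Proliferation was read by CellTiter-Glo luminescence after 72 h of exposure to 10-point compound dilutions at 37 °C and 5% CO2. T47D (RPMI, 10% FBS, insulin 0.2 units/mL) and SKBR3 (McCoys 5a, 10% FBS) cells were seeded at 1,500 cells/well. EC50 was fitted from inhibition relative to DMSO and 10 uM Alpelisib.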

[4] = test system: T47D cells expressing mutant PI3Ka (H1047R); assay: In vitro cell proliferation, T47D cells (CellTiter-Glo); conditions: inhibition of proliferation, read-out: Avg T-47D EC50
Outline: as §2

| SMILES | IC50 [1] [nM] | IC50 ([2]; 6 hours) [nM] | EC50 ([3]; 72 hours) [nM] | EC50 ([4]; 72 hours) [nM] | IC50 ([1]; Homo sapiens, T47D, 6 h) [nM] | IC50 ([2]; Homo sapiens, SK-BR-3, 6 h) [nM] | EC50 ([3]; Homo sapiens, SK-BR-3, 72 h) [nM] | EC50 ([4]; Homo sapiens, T47D, 72 h) [nM] |
| --- | --- | --- | --- | --- | --- | --- | --- | --- |
| Cc1cc([C@@H](C)Nc2ccccc2C(=O)O)c2cc(N3CCN(c4ccc(C)nn4)CC3)n(C)c(=O)c2c1 [Example 551] | – | – | – | – | 1 to 500 | 2000 to 15000 | 2000 to 15000 | 1 to 500 |
| Cc1ccc(N[C@H](C)c2cc(F)cc3c(=O)n(C)c(-c4ccc(OCC(F)(F)F)nc4)cc23)c(C(=O)O)n1 [Example 557] | 1 to 500 | > 15000 | 2000 to 15000 | 500 to 2000 | – | – | – | – |
| C[C@@H](Nc1ccccc1C(=O)O)c1cc(F)cc2c(=O)n(C)c(I)cc12 [Example 559] | – | – | – | – | 500 to 2000 | > 15000 | > 15000 | 500 to 2000 |
| CC(Nc1ccccc1C(=O)O)c1cc(F)cc2c(=O)n(C)c(-c3ccc(OC4CC4)nc3)c(F)c12 (stereo not drawn) [Example 561] | 1 to 500 | > 15000 | > 15000 | 1 to 500 | – | – | – | – |
| Cc1ncc(F)cc1-c1ncc(-c2c(F)c3c([C@@H](C)Nc4ccccc4C(=O)O)cc(F)cc3c(=O)n2C)cc1F [Example 562] | – | – | – | – | 1 to 500 | 2000 to 15000 | > 15000 | 1 to 500 |
| C[C@@H](Nc1ccccc1C(=O)O)c1cc(F)cc2c(=O)n(C)c(C34CC(CC(F)(F)F)(C3)C4)cc12 [Example 570] | – | – | – | – | 1 to 500 | > 15000 | > 15000 | 1 to 500 |
| C[C@@H](Nc1ccccc1C(=O)O)c1cc(F)cc2c(=O)n(C)c(-c3cnc(-c4cnc(C(F)(F)F)nc4)c(F)c3)cc12 [Example 574] | – | – | – | – | 1 to 500 | > 15000 | 2000 to 15000 | 1 to 500 |
| C[C@@H](Nc1ccccc1C(=O)O)c1cc(F)cc2c(=O)n(C)c(C34CC(c5ccc(F)cc5F)(C3)C4)cc12 [Example 578] | – | – | – | – | 1 to 500 | 2000 to 15000 | 2000 to 15000 | 1 to 500 |

Next, values leading:

| IC50 [1] [nM] | IC50 ([2]; 6 hours) [nM] | EC50 ([3]; 72 hours) [nM] | EC50 ([4]; 72 hours) [nM] | IC50 ([1]; Homo sapiens, T47D, 6 h) [nM] | IC50 ([2]; Homo sapiens, SK-BR-3, 6 h) [nM] | EC50 ([3]; Homo sapiens, SK-BR-3, 72 h) [nM] | EC50 ([4]; Homo sapiens, T47D, 72 h) [nM] | SMILES |
| --- | --- | --- | --- | --- | --- | --- | --- | --- |
| 1 to 500 | > 15000 | 2000 to 15000 | 1 to 500 | – | – | – | – | C[C@@H](Nc1ccccc1C(=O)O)c1cc(F)cc2c(=O)n(C)c(-c3cnc(-c4cc(F)c(F)cc4F)c(F)c3)cc12 [Example 548] |
| – | – | – | – | 500 to 2000 | > 15000 | > 15000 | 2000 to 15000 | C[C@@H](Nc1ccccc1C(=O)O)c1cc(F)cc2c(=O)n(C)c(Br)cc12 [Example 555] |
| 1 to 500 | > 15000 | 2000 to 15000 | 1 to 500 | – | – | – | – | CC(Nc1ccccc1C(=O)O)c1cc(F)cc2c(=O)n(C)c(-c3cnc(-c4ccc(F)cc4F)c(F)c3)cc12 (stereo not drawn) [Example 560] |
| 1 to 500 | > 15000 | > 15000 | 1 to 500 | – | – | – | – | CC(Nc1ccccc1C(=O)O)c1cc(F)cc2c(=O)n(C)c(-c3cnc(OC4CC4)c(F)c3)c(F)c12 (stereo not drawn) [Example 565] |
| – | – | – | – | 1 to 500 | > 15000 | > 15000 | 1 to 500 | C[C@@H](Nc1ccccc1C(=O)O)c1cc(F)cc2c(=O)n(C)c(-c3cnc(OCC(F)(F)F)s3)cc12 [Example 568] |
| – | – | – | – | 1 to 500 | > 15000 | 2000 to 15000 | 500 to 2000 | C[C@@H](Nc1ccccc1C(=O)O)c1cc(F)cc2c(=O)n(C)c(-c3cnc(OCC(F)(F)F)c(F)c3)c(F)c12 [Example 569] |
| – | – | – | – | 1 to 500 | > 15000 | 2000 to 15000 | 1 to 500 | C[C@@H](Nc1ccccc1C(=O)O)c1cc(F)cc2c(=O)n(C)c(C34CC(C(F)(F)C(F)(F)F)(C3)C4)cc12 [Example 571] |
| – | – | – | – | 500 to 2000 | > 15000 | > 15000 | 2000 to 15000 | C[C@@H](Nc1ccccc1C(=O)O)c1cc(F)cc2c(=O)n(C)c(-c3cnc(-c4ccnc(C(F)(F)F)n4)c(F)c3)cc12 [Example 575] |
| – | – | – | – | 1 to 500 | > 15000 | 2000 to 15000 | 1 to 500 | Cc1nc(C(F)(F)F)c(F)cc1-c1ncc(-c2cc3c([C@@H](C)Nc4ccccc4C(=O)O)cc(F)cc3c(=O)n2C)cc1F [Example 576] |
| – | – | – | – | 1 to 500 | > 15000 | 2000 to 15000 | 1 to 500 | C[C@@H](Nc1ccccc1C(=O)O)c1cc(F)cc2c(=O)n(C)c(-c3cnc(C4(CC(F)(F)F)CC4)nc3)cc12 [Example 579] |

From patent US20260078103A1, “ISOQUINOLONES AS PI3K INHIBITORS” (OnKure, Inc., priority 2022, published 2026)
